Consider 21 compounds from patent US20030176436A1, “Novel heterocyclic compounds as selective bacterial DHFR inhibitors and their uses thereof” (priority 2001, published 2003).

The structures appear in SMILES notation. Converted amounts (≈) assume the structure as drawn. Where two headings read alike, the source gives them in different places.

One experiment deals with T1, bacterial DHFR (bDHFR) (Escherichia coli, UniProt P0ABQ4).
T1 construct: gift of Eric Brown, McMaster University
Briefly: DHFR enzyme assay, Ki determination, bacterial DHFR. The experiment is classed as biochemical, E. coli. As for the experimental part: Human and Bacterial DHFR: E. coli DHFR was kindly provided by Eric Brown of MacMaster University.
(§1) Dihydrofolic acid and NADPH were purchased from Sigma. Enzyme assays were adapted for microtitre format from a previously published procedure (2, 3). All assays were performed in a 250 μl volume in 96-well microtitre plates. Typical assays consisted of 20 nM DHFR (human or E. coli), 100 μM NADPH, and 50 μM dihydrofolic acid in 100 mM HEPES pH 8, 10 mM KCl, and 10 mM MgCl2. The assay was monitored spectrophotometrically for the conversion of NADPH to NADP+, which results in a decrease in absorbance at 340 nm.
The reaction was initiated by the addition of 125 μl of 100 μM dihydrofolic acid. The final concentrations in the assay were 20 nM DHFR, 100 μM NADPH, 50 μM dihydrofolic acid, and a range of 500 μM to 20 nM inhibitor compound. The final DMSO concentration was 2% of the total volume. Reactions were monitored as described above.

A further experiment has as its system S. aureus. In words: Microdilution antimicrobial susceptibility test (MIC). Format: cell-based. The conditions noted are these: Staphylococcus aureus; MIC, average; read-out: S. aureus (μg/ml) avg. As for the experimental part:
Stock solutions of tested compounds were prepared in N,N-dimethylformamide (DMF) at a concentration of 5 mg/mL. Working solutions of the tested compounds were then prepared from the stock solutions, in Mueller-Hinton broth (MHB) with a starting concentration of 64 μg/mL.
Bacterial inocula were prepared from overnight culture (i.e., one fresh colony from agar plate in 5 ml MHB; H. influenzae was grown in MHB with the addition of yeast extract, haematin, and NAD), centrifuged 2×5 min/3000 rpm (for S. pneumoniae and H. influenzae, 2×10 min/3000 rpm), and dispensed in 5 ml of fresh MHB each time, such that the bacterial suspension is diluted to obtain 100 colony forming units (cfu) in a microplate well (100 μl total volume).
Microplate wells were filled with two-fold dilutions of test compound (50 μl), starting with 64 μg/ml. Wells were then filled with 50 μl of bacterial inoculum (final volume: 100 μl/well). The plates were incubated at 37° C. for 18-24 hours (S. pneumoniae was grown in a CO2-enriched atmosphere).

The target in another experiment is T2, human DHFR (hDHFR) (Homo sapiens, UniProt P00374).
T2 construct: result in the amplification of a 186 amino acid hDHFR coding region; made in house; host or cells: E. coli Top10
T2 sequence (P00374 1-187): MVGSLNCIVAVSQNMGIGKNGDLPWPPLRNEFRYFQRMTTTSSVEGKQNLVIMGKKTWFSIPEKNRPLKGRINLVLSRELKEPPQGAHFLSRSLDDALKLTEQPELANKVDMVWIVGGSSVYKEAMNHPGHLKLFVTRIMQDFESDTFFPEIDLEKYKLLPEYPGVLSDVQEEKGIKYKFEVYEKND
Briefly: DHFR enzyme assay, Ki determination, human DHFR. The experiment is classed as biochemical. Conditions: Table 3. The procedure: The human DHFR cDNA was cloned by PCR from the Human Universal Quick-clone™ cDNA purchased from Clontech.
The PCR fragment was digested with restriction enzymes NdeI and HindIII, and then ligated into a derivative of the pKK223-3 expression vector (Amersham Pharmacia). The final expression vector (pFW96.2) was transformed into E. coli Top10 F40 and hDHFR protein was induced by the addition of 1 mM IPTG followed by incubation at 37° C. for 4 hrs. Recombinant human DHFR was purified based on a previously published procedure (2).
as §1
Five microliters of inhibitor compound in DMSO was added to 120 μl of enzyme solution (40 nM DHFR and 200 μM NADPH). The reaction was initiated by the addition of 125 μl of 100 μM dihydrofolic acid. The final concentrations in the assay were 20 nM DHFR, 100 μM NADPH, 50 μM dihydrofolic acid, and a range of 500 μM to 20 nM inhibitor compound. The final DMSO concentration was 2% of the total volume. Reactions were monitored as described above.
V=(Vmax[S])/(Km(1+I/Ki)+[S]), where S=dihydrofolate, Km=Michaelis constant for dihydrofolate, I=inhibitor concentration.

Setting [1] is: average, read-out: bDHFR Ki/(μM) avg.
[2] abbreviates: second part of table, read-out: bDHFR.

For the compound `CCC(c1cccc2ccccc12)N(C)c1ncc2c(N)nc(N)nc2n1` (single isomer, unassigned) [Compound 41], at bacterial DHFR (bDHFR) (setting [1]), the Ki is 0.037 µM. Further, the MIC in the experiment on S. aureus is under 0.125 µg/mL.

In the case of `CCN(c1ncc2c(N)nc(N)nc2n1)[C@H](C)c1ccc(C)c2ccccc12` [Compound 32], at bacterial DHFR (bDHFR) (setting [1]), the Ki turned out to be 0.011 µM. The MIC in the experiment on S. aureus worked out at 0.5 µg/mL (≈ 1.34 µM).

`CCN(c1ncc2c(N)nc(N)nc2n1)C(C)c1ccc(C)c2ccccc12` (stereo not drawn) [Compound 50]: on bacterial DHFR (bDHFR) (setting [1]), the Ki amounted to 0.004 µM. Also, in the experiment with S. aureus, the MIC is 2 µg/mL (≈ 5.36 µM).

Take `CC(c1cccc2ccccc12)N(CCc1ccc(Cl)cc1)c1ncc2c(N)nc(N)nc2n1` (stereo not drawn) [Compound 57]: the Ki on bacterial DHFR (bDHFR) (setting [1]) is 0.011 µM. For the same compound, the MIC with S. aureus amounted to 2 µg/mL (≈ 4.26 µM).

In the case of `CCC(c1ccc(Cl)c2ccccc12)N(C)c1ncc2c(N)nc(N)nc2n1` (stereo not drawn) [Compound 44], the Ki at bacterial DHFR (bDHFR) (setting [1]) is 0.004 µM. Further, the MIC in the experiment on S. aureus was under 0.125 µg/mL.

For the compound `CCN(c1ncc2c(N)nc(N)nc2n1)[C@H](C)c1csc2ccccc12` [Compound 36], the Ki at bacterial DHFR (bDHFR) (setting [1]) and on bacterial DHFR (bDHFR) (setting [2]) was 0.005 µM throughout. The MIC with S. aureus is under 0.125 µg/mL.

In the case of `CCN(c1ncc2c(N)nc(N)nc2n1)[C@H](C)c1ccc(F)c2ccccc12` [Compound 37], the Ki on bacterial DHFR (bDHFR) (setting [1]) turned out to be 0.003 µM. For the same compound, the MIC with S. aureus is under 0.125 µg/mL.

For the compound `CC(c1ccc(OCc2c(F)cccc2Cl)cc1)N(C)c1ncc2c(N)nc(N)nc2n1` (stereo not drawn) [Compound 48], at bacterial DHFR (bDHFR) (setting [1]), the Ki is 0.007 µM. For the same compound, the MIC in the experiment with S. aureus was 2 µg/mL (≈ 4.41 µM).

Take `Nc1nc(N)c2cnc(NCc3ccc(Oc4ccc(F)cc4)cc3)nc2n1` [Compound 66]: the Ki on bacterial DHFR (bDHFR) (Table 3, read-out: bDHFR Ki) is under 1 µM; at human DHFR (hDHFR), over 500000 nM.

`C=CCN(c1ncc2c(N)nc(N)nc2n1)C(C)c1cccc2ccccc12` (stereo not drawn) [Compound 34]: the Ki at bacterial DHFR (bDHFR) (setting [1]) stood at 0.014 µM. The MIC in the experiment with S. aureus was determined as 1 µg/mL (≈ 2.69 µM).

Regarding `CC(c1cc(Cl)cc2ccccc12)N(C)c1ncc2c(N)nc(N)nc2n1` (stereo not drawn) [Compound 35], the Ki at bacterial DHFR (bDHFR) (setting [1]) is 0.037 µM. Besides, the MIC with S. aureus came out at 0.5 µg/mL (≈ 1.32 µM).

For the compound `CC(c1cccc2ccccc12)N(CCC(C)(C)C)c1ncc2c(N)nc(N)nc2n1` (stereo not drawn) [Compound 60], the Ki at bacterial DHFR (bDHFR) (setting [1]) is 0.029 µM. Besides, the MIC with S. aureus amounted to 2 µg/mL (≈ 4.81 µM).

Turning to `CC(c1ccnc2ccccc12)N(C)c1ncc2c(N)nc(N)nc2n1` (stereo not drawn) [Compound 39], the Ki on bacterial DHFR (bDHFR) (setting [1]) turned out to be 0.015 µM. In the experiment with S. aureus, the MIC was determined as 0.25 µg/mL (≈ 0.722 µM).

On to `CC(c1ccc2c3c(cccc13)CC2)N(C)c1ncc2c(N)nc(N)nc2n1` (stereo not drawn) [Compound 28], for which, on bacterial DHFR (bDHFR) (setting [1]), the Ki was determined as 0.02 µM. Also, the MIC in the experiment with S. aureus was under 0.125 µg/mL.

With `C[C@H](c1csc2ccccc12)N(CC1CC1)c1ncc2c(N)nc(N)nc2n1` [Compound 59], the Ki on bacterial DHFR (bDHFR) (setting [1]) came to 0.005 µM. Further, the MIC with S. aureus is 2 µg/mL (≈ 5.11 µM).

`Cc1ccc(C(F)(F)F)cc1NCc1cnc2nc(N)nc(N)c2n1` [Compound 64]: the Ki on bacterial DHFR (bDHFR) (setting [2]) amounted to 0.385 µM.

On to `CCN(c1ncc2c(N)nc(N)nc2n1)C(C)c1cccc2ccccc12` (stereo not drawn) [Compound 45], for which the Ki on bacterial DHFR (bDHFR) (setting [1]) was 0.008 µM. The MIC in the experiment with S. aureus is 2 µg/mL (≈ 5.56 µM).

In the case of `CC(c1ccc(F)c2ccccc12)N(C)c1ncc2c(N)nc(N)nc2n1` (stereo not drawn) [Compound 23], the Ki at bacterial DHFR (bDHFR) (setting [1]) was found to be 0.027 µM. Besides, the MIC in the experiment on S. aureus stood at 1 µg/mL (≈ 2.75 µM).

In the case of `CC(c1c2c(cc3ccccc13)CCCC2)N(C)c1ncc2c(N)nc(N)nc2n1` (stereo not drawn) [Compound 27], the Ki on bacterial DHFR (bDHFR) (setting [1]) was found to be 0.008 µM. For the same compound, the MIC in the experiment on S. aureus was 0.5 µg/mL (≈ 1.25 µM).

For `Nc1nc(N)c2nc(CNc3cccc(OCc4ccccc4)c3)cnc2n1` [Compound 20], the Ki at bacterial DHFR (bDHFR) (setting [1]) stood at 0.062 µM. The MIC in the experiment on S. aureus turned out to be 0.5 µg/mL (≈ 1.34 µM).

Take `CC(c1c2c(cc3ccccc13)CCCC2)N(CC1CC1)c1ncc2c(N)nc(N)nc2n1` (stereo not drawn) [Compound 31]: at bacterial DHFR (bDHFR) (setting [1]), the Ki stood at 0.024 µM. Moreover, the MIC with S. aureus stood at 1 µg/mL (≈ 2.27 µM).
